A melting point compilation (Tetko et al.; mined from patent text by program, amines drawn as free bases though some values may be those of a salt)
Residues, ends and D or L forms follow the SMILES beside them. *: point of attachment. Cbz = O=C(OCc1ccccc1)*

Row | SMILES | melting point [°C]
1 | COc1cc(COc2cc(CCc3ccccn3)n(-c3ccccc3)n2)ccc1OCc1nc(-c2ccco2)oc1C | 104 to 105
2 | O=P12CN3CN(C1)S(=O)(=O)N(C3)C2 | 245 to 246
3 | O=C(CCCOc1ccc2nc3[nH]c(=O)[nH]c3cc2c1)NC1CCCCC1 | > 320
4 | COc1cc(N2CCN(CCc3coc4ccc(F)cc34)CC2)c2ncccc2c1 | 80
5 | CCCc1c(C#N)c(C(F)F)nc(C(F)(F)F)c1C(=O)OCC | 40 to 41
6 | CNC(=O)c1ccc(CN2CCN(c3nc(C)c(C(C)=O)s3)C2=O)cc1 | 173 to 175
7 | CO[C@@H]1CNCC[C@H]1NC(=O)c1cccc(C(F)(F)F)c1 (relative stereo) | 100
8 | O=C(OCCN1CCN(c2ccc(Cl)cc2)CC1)c1sccc1Nc1ccnc2c(C(F)(F)F)cccc12 | 155
9 | CC1(NC(=NC#N)Nc2cccnc2)CCC1 | 210 to 212
10 | COC(=O)c1cncn1C1c2ccccc2C(=O)CC1(C)C (centres undefined) | 93 to 95
11 | CCCCCc1ccc(-c2ccc(-c3cc(F)c(C(F)(F)Oc4cc(F)c(C(F)(F)F)c(F)c4)c(F)c3)c(F)c2)cc1 | 96
12 | Cc1noc(NS(=O)(=O)c2ccccc2C#N)c1Br | 152 to 155
13 | CC1=CC2Cc3[nH]c(=O)ccc3C3(C1)NCCCC23 (centres undefined) | 270 to 271
14 | COc1cc(Nc2cc(-c3nnc(C)o3)ccn2)cc(C(F)(F)F)c1 | 241 to 242
15 | CN1CCN(Cc2c(Cl)ccc(C(=O)O)c2Cl)C1=O | 221
16 | Cn1nnnc1CN1CCC[C@@H](OCc2cc(C(F)(F)F)cc(C(F)(F)F)c2)[C@H]1c1ccccc1 (relative stereo) | 75 to 77
17 | COc1cc2c(N3CCN(Cc4ccccc4)CC3)nc(-c3ccc(Cl)cc3)nc2c(OC)c1OC | 150
18 | Cc1oc(-c2ccc(F)cc2)nc1COc1cccc(Cn2oc(=O)[nH]c2=O)c1 | 163 to 164
19 | COCCNc1nc(C)nc2c1nnn2-c1ccc(C(C)C)cc1Br | 134 to 136
20 | CC(N)C(=O)N1CC(=O)N(CC(N)=O)C1(C)C (centres undefined) | 196 to 197

Row | SMILES | melting point [°C]
21 | CSC1CC(=O)N1CC(=O)CCCCCCCc1ccccc1 (centres undefined) | 48 to 51
22 | CCc1ccc(C(=O)O)c(N)c1 | 117 to 120
23 | CNS(=O)(=O)c1cscc1CO | 118 to 119
24 | Cn1c(=O)c2c(NC(=O)C3CCCCC3)onc2n(C)c1=O | 210 to 212
25 | CON=Cc1cc(-n2c(=O)cc(C(F)(F)F)n(C)c2=O)c(F)cc1Cl | 141 to 142
26 | CCOC(=O)c1cn(CC)c2nc(N3CCNCC3)ncc2c1=O | 155
27 | O=c1c2ccccc2sc2cc(F)ccc12 | 168
28 | CON=C(Cl)c1ccccc1S(=O)(=O)NC(=O)Nc1nc(C)cc(OC)n1 | 178 to 179
29 | CC1=C(C)C(=O)C(CN2C(=O)[C@H]3CCC[C@H]3N(C(=O)CN3C(=O)c4ccccc4C3=O)c3ccccc32)=C(C)C1=O (relative stereo) | 258 to 260
30 | COC1C(OC(=O)N2CCOCC2)CCC2(CO2)C1C1(C)OC1CCOCc1ccccc1 (centres undefined) | 96 to 97
31 | CN(C)c1snc2c1c(N)nc(=O)n2Cc1ccccc1 | 190 to 195
32 | Cc1nc2c(F)c(F)cc(F)c2s1 | 91 to 92
33 | CC1(C(O)(Cc2ccc(F)cc2)Cn2cncn2)CC1(F)F (centres undefined) | 114
34 | NS(=O)(=O)c1cccc(C=O)c1 | 108 to 109
35 | CC(=O)Nc1ccc2c(c1)C(=O)CCC2 | 165 to 166
36 | Cc1ccc2c(-c3cc(C(C)(C)C)c(O)c(C(C)(C)C)c3)nn(CCO)c2n1 | 183 to 185
37 | N=C(N)NCCCC(NC(=O)C1CCCN1C(=O)C(CCCCNC(=O)OCc1ccccc1)NC(=O)CNC(=O)OCc1ccccc1)C(=O)O (centres undefined) (Cbz-GK(Cbz)PR-OH; configuration not given here) | 175
38 | Clc1ccc(/C=C/c2cc(Cl)cc(Cl)c2)cc1 | 94 to 96
39 | O=Cc1ccc2noc(-c3cccc(Cl)c3)c2c1 | 148
40 | CCCCCCC(=N)NC(=S)Nc1ccc(F)cc1 | 75 to 76

Row | SMILES | melting point [°C]
41 | CCCn1c(COCC)nc2c(N)nc3ccc(OCC4CCCO4)cc3c21 (centres undefined) | 178 to 179
42 | CCC(C(=O)O)N(C(=O)c1cn(-c2ccc(F)cc2F)nc1C)c1ccc(OCC(C)(C)C)c(C#N)c1 (centres undefined) | 110
43 | CN1C(=O)[C@H](NC(=O)C2Cc3ccccc3O2)N=C(c2ccccc2)c2ccccc21 (some centres undefined) | 141 to 180
44 | CC#CC(C)(C)NC(=O)C(Br)CC (centres undefined) | 79 to 81
45 | CCn1cc(C(=O)O)c(=O)c2cc(F)c(N3CC(N)C3)nc21 | 260 to 262
46 | O=c1[nH]c2nc(Cl)nc(Cl)c2s1 | 191 to 192
47 | CCCN(CCC)C1CCc2ccc(NC(=O)C=NO)cc2C1 (centres undefined) | 82 to 85
48 | CC(C)(C)c1ccc2c(c1)C(COCc1ccccc1)([Si](C)(C)C)c1cc(C(C)(C)C)ccc1-2 | 100 to 102
49 | N#Cc1c(N2CCCC2)c(F)cc2c(=O)c(C(=O)O)cn(C3CC3)c12 | 274 to 276
50 | CC(C)C(=O)C(=CN(C)C)c1ccc(Cl)cc1 | 95
51 | CC(=O)Nc1ccc(S(=O)(=O)CCCl)cc1 | 188
52 | CN(C)C(=O)n1c(CN2CCN(c3ccccn3)CC2)nc2ccccc21 | 174 to 176
53 | O=C1CCc2ccc(O)c(c2)Oc2ccc(cc2)C2OC2CO1 (centres undefined) | 180 to 181
54 | CNC(=O)C1(c2ccc([N+](=O)[O-])cc2)C2C=CC(C2)C1C(N)=O (centres undefined) | 164 to 166
55 | CC(C)(C)OC(=O)N1CCN(C(=O)/C=C/c2ccc(Sc3ccc4c(c3)OCCO4)c([N+](=O)[O-])c2)CC1 | 165 to 167
56 | N#Cc1c(Cl)sc2[nH]c(=O)c(=O)[nH]c12 | > 250
57 | COc1ccc(-c2c(Cl)c(CN3CCCC3)nc3sc4c(c23)CCN(Cc2ccccc2)C4)cc1OC | 157 to 158
58 | CCN1C(=O)C(CCN2CCN(c3ccccc3OC)CC2)Sc2ccccc21 (centres undefined) | 142 to 144
59 | CC(=O)NC[C@H]1CN(c2ccc(N3CCC(O)(CN4CCNCC4)CC3)c(F)c2)C(=O)O1 | 175 to 177
60 | COC(=O)c1nc2c(CBr)cccc2n1COCC[Si](C)(C)C | 85 to 86

Second part, the compound after the results:

Row | melting point [°C] | SMILES
61 | 182 to 184 | COc1ccc(S(=O)(=O)C2(CCCC#Cc3ccc(C(=O)O)cc3C)SC(=O)NC2=O)cc1 (centres undefined)
62 | 65 to 67 | COCC1=C(c2ccccc2)C(=O)N(C(C)(C)C(=O)OC(C)(C)C)CO1
63 | 141 to 142 | O=[N+]([O-])c1c(C=NO)cccc1OCc1ccccc1
64 | > 340 | COc1ccc(-c2ccc(C(=N)NO)cc2)cc1-c1nc2cc(C(=N)NO)ccc2[nH]1
65 | 98 to 100 | CCOC(=O)CC(O)CC(O)C=Cc1c(C(C)C)oc(-c2ccccc2)c1-c1ccc(F)cc1 (centres undefined)
66 | 128 | CCC1(COc2ccc(C(=O)O)cc2)COC1
67 | 120 to 123 | Oc1cccc2[nH]c(-c3ccccc3)cc12
68 | 206 | N#Cc1cc(NC(=O)c2cc3ccccc3s2)ccc1OC1CCN(Cc2ccccc2)CC1
69 | 118 to 119 | CCCN(CCC)C(=O)Cc1cn(Cc2ccccc2Br)c2ccccc12
70 | 155 to 157 | CC(c1ccccc1N1CCCC1)C(C(N)=O)c1ccc(C(=O)O)cc1 (centres undefined)
71 | 112 to 114 | CCCCSc1cc(C(=O)OCC#N)cc(S(N)(=O)=O)c1Cc1ccccc1
72 | 166 to 168 | Oc1cccc(CCc2nc(-c3ccccc3)c(-c3ccccc3)s2)c1
73 | 267 | COc1ccc(-c2[nH]nc3c2C(=O)c2c(NC(=O)C4CCCC4)cccc2-3)cc1
74 | 201 to 203 | NNC(=O)c1ccc(OCc2cccc(Br)c2)cc1O
75 | 272 to 275 | COc1ccc2nc(C(=O)O)c(OCc3ccccc3)cc2c1
76 | 66 to 68 | NNC(=S)c1ccccc1
77 | 70 | O=C(Nc1ccccc1)C(CS)Cc1ccccc1 (centres undefined)
78 | 118 to 120 | ClCCCCCOc1ccc(C2=C(c3ccccc3)CCCc3ccccc32)cc1
79 | 139 to 140 | COC(=O)c1cc(SCc2ccccc2)c(Cc2ccccc2)c(S(N)(=O)=O)c1
80 | 66 to 72 | COCCN(C)C(=O)Nc1c(C(=O)c2ccccc2)[nH]c2cc(Cl)ccc12

Row | melting point [°C] | SMILES
81 | > 330 | O=c1[nH]c2cc([N+](=O)[O-])ccc2c(O)c1-c1ccccc1
82 | 46 to 47 | C=CC[C@H]1C[C@@](OS(C)(=O)=O)(C(=O)OC)C[C@@H](OC(=O)c2ccccc2)[C@@H]1O
83 | 97 to 99 | CC(C)(O)c1ccc(CC(=O)Nc2cccnc2Oc2cccc(C#N)c2)cc1
84 | 50 to 53.5 | CCOC(=O)C=CC(=O)c1ccc(Oc2ccccc2)cc1
85 | > 250 | CC(C)c1sc2ncnc(N)c2c1-c1ccc(NC(=O)c2ccccc2)cc1
86 | 73 to 77 | COc1ccc2nc([C@H](CC(C)C)NC(=O)OCc3ccccc3)[nH]c2c1
87 | 146 to 148 | CN(CCOc1ccc(CC(F)C(=O)O)cc1)c1nc2ccccc2o1 (centres undefined)
88 | 134 | O=C(NN=Cc1ccncc1)OCc1ccccc1
89 | 71 to 75 | COC(=O)CC(O)CC(O)CCc1c(-c2ccc(F)cc2)c(-c2ccccc2)c(C(=O)Nc2ccc(C(=O)OC)cn2)n1C(C)C (centres undefined)
90 | 98 | c1ccc2cc(OCCCNC3CCCCC3)ccc2c1
91 | 168 to 170 | O=C(O)c1cccc(N2CCc3ccccc32)c1
92 | 94 to 95 | CO/C=C(/C(=O)OC)c1ccccc1Oc1cc(Cl)ncn1
93 | 128 to 131 | [N-]=[N+]=NCc1n[nH]nc1-c1ccc(Cl)cc1C(=O)c1ccccc1
94 | 124 to 127 | CCOC(=O)c1ccc(NCCOc2cccc3ccccc23)cc1
95 | 110 to 112 | CCCCCCCCCCCCOC(=O)c1cccc(NC(=O)NS(=O)(=O)c2ccc(C)cc2)c1
96 | 273 to 274 | Cc1cccc(NC(=O)c2cn(-c3ccccc3)c3ccccc3c2=O)n1
97 | 223 to 224 | Cc1ccc(C2CNCc3[nH]c4ccccc4c32)cc1 (centres undefined)
98 | 111 to 112 | O=C1C(c2ccccc2)=C(c2ccccc2)C(=O)N1CCc1ccccc1F
99 | 252 to 253 | COC(=O)c1c(C(=O)OC)c2n(c1C)Cc1[nH]c3ccccc3c1C2
